Literature values, collected in patent US5840756A, “Pharmaceutical composition of L-DOPA ester” (priority 1996, dated 1998).

How the values were obtained:
[1] = oral administration; L-DOPA ethyl ester vs L-DOPA
[2] = oral or parenteral route
[3] = not given; remark: listed apart in the source

Row | Structure (SMILES) | Time courses of action [1] | Function as a prodrug of levodopa [2] | Relief from the `off` state (direct instillation of a slurry through a duodenal tube) | Effect of oral dosing with a dilute aqueous solution (oral, dilute aqueous solution) | Treated patients in whom disabling motor fluctuations appear (within five years after initiation, in combination with carbidopa or benserazide) | Water solubility [3]
1 | CCOC(=O)[C@@H](N)Cc1ccc(O)c(O)c1 [L-DOPA ethyl ester] | same time courses of action | function as a prodrug of levodopa |  |  |  | 
2 | N[C@@H](Cc1ccc(O)c(O)c1)C(=O)O [levodopa] | same time courses of action |  | rapid relief | appeared to be effective | about 50% | low water solubility
